Results taken from article PMC5725665, “Discovery of a Highly Selective Cell‐Active Inhibitor of the Histone Lysine Demethylases KDM2/7” (Angewandte Chemie (International Ed. in English), 2017).

Assays:
Test in all cases: biochemical
Parameters in all cases: AlphaScreen histone demethylase activity assay
PHF8 (KDM7B) = PHF8 (KDM7B) (Homo sapiens, UniProt Q9UPP1); details: read-out: KDM7B pIC50 (converted)
Source text: (§1) A base‐mediated 5‐endo‐trig cyclization of a C‐2‐substituted aromatic imine afforded the racemic indoline core with two adjacent stereocenters. Subsequent acylation of the indoline ring system conferred stability towards oxidation and provided a handle for modulating polarity. Finally, metal‐catalysed cross‐coupling of the aryl bromide provided access to a variety of linkers between the indoline core and pyrrolidine capping group. In total, 45 racemic compounds were synthesized, and IC50 values for inhibition of KDM2A were determined using two orthogonal enzyme activity assays: AlphaScreen25 and RapidFire MS26 (see Section S3.1 in the Supporting Information for complete inhibition data). Key structure–activity relationships are summarized below (Scheme 1 B, compounds 2–12). […] In immunofluorescence assays using HeLa cells ectopically expressing catalytically active KDM2A, a dose‐dependent increase in H3K36me2 staining was observed upon incubation with (S,S)‐6, reflecting augmented cellular H3K36me2 levels (Figure 2 A and Section S3.3). […] To profile its selectivity, (S,S)‐6 was tested for inhibitory activity against a panel of KDMs, methyllysine binding motifs, and epigenetic enzymes.

JMJD2D (KDM4D) = biological target: T1, JMJD2D (KDM4D) (Homo sapiens, UniProt Q6B0I6)
T1 sequence (Q6B0I6 1-523): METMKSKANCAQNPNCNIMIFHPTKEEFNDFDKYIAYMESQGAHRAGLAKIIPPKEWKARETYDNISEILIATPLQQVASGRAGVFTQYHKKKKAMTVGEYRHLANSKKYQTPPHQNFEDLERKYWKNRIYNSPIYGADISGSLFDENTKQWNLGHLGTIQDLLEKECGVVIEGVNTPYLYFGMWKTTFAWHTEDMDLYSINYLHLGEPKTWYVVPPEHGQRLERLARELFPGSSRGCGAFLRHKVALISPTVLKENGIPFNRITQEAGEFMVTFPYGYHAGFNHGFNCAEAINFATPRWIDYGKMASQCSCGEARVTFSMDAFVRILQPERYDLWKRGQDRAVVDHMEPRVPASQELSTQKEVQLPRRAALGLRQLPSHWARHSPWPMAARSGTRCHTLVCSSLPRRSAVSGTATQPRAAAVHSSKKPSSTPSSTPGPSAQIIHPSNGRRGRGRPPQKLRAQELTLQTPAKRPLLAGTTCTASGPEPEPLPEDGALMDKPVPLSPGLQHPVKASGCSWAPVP
Source text: as §1

JMJD3A (KDM6B) = JMJD3A (KDM6B) (Homo sapiens, UniProt O15054); details: read-out: KDM6B pIC50 (converted)
Source text: as §1

JARID1C (KDM5C) = JARID1C (KDM5C) (Homo sapiens, UniProt P41229); details: read-out: KDM5C pIC50 (converted)
Source text: as §1

JARID1B (KDM5B) = JARID1B (KDM5B) (Homo sapiens, UniProt Q9UGL1); details: read-out: KDM5B pIC50 (converted)
Sequence of JARID1B (KDM5B) (Q9UGL1 whole entry): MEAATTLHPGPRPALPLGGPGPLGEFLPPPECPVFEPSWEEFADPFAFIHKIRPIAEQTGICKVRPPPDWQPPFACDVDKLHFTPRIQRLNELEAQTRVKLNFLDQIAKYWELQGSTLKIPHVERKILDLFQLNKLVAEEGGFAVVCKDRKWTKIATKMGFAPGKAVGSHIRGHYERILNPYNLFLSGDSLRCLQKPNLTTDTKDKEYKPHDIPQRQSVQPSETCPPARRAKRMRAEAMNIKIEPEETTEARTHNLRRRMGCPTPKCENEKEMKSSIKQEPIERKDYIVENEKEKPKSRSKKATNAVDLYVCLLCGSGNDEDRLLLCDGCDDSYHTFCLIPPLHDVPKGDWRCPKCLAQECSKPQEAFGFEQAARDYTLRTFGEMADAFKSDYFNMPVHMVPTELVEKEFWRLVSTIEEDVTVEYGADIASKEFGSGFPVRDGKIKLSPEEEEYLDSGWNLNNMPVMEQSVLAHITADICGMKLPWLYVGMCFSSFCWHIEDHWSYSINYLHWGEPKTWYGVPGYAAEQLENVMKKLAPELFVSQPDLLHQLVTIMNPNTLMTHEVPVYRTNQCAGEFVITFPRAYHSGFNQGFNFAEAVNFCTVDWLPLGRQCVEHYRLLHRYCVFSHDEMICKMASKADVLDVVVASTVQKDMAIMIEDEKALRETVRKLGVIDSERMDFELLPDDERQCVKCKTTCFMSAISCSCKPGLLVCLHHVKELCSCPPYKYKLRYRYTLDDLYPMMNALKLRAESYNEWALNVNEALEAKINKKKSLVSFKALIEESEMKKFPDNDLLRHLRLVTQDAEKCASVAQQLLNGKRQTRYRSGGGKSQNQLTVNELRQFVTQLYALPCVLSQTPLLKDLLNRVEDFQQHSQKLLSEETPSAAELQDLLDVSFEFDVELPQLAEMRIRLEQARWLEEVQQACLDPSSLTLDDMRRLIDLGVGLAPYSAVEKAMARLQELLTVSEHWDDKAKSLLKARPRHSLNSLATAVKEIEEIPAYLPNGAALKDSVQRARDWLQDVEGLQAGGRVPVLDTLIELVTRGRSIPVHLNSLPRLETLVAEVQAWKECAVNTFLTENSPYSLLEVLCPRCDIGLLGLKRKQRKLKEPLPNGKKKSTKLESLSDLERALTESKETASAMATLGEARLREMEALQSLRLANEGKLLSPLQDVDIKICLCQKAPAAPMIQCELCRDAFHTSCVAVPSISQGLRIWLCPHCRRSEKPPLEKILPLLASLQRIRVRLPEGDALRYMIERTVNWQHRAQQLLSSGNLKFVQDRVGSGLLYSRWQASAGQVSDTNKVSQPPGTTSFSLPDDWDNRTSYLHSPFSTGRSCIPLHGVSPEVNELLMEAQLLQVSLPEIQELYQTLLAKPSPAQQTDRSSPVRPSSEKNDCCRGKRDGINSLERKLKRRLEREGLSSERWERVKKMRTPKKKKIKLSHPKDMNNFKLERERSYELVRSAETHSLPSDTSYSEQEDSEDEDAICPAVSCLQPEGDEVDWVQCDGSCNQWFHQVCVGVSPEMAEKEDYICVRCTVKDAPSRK
Source text: as §1

JARID1A (KDM5A) = JARID1A (KDM5A) (Homo sapiens, UniProt P29375)
Sequence of JARID1A (KDM5A) (P29375 whole entry): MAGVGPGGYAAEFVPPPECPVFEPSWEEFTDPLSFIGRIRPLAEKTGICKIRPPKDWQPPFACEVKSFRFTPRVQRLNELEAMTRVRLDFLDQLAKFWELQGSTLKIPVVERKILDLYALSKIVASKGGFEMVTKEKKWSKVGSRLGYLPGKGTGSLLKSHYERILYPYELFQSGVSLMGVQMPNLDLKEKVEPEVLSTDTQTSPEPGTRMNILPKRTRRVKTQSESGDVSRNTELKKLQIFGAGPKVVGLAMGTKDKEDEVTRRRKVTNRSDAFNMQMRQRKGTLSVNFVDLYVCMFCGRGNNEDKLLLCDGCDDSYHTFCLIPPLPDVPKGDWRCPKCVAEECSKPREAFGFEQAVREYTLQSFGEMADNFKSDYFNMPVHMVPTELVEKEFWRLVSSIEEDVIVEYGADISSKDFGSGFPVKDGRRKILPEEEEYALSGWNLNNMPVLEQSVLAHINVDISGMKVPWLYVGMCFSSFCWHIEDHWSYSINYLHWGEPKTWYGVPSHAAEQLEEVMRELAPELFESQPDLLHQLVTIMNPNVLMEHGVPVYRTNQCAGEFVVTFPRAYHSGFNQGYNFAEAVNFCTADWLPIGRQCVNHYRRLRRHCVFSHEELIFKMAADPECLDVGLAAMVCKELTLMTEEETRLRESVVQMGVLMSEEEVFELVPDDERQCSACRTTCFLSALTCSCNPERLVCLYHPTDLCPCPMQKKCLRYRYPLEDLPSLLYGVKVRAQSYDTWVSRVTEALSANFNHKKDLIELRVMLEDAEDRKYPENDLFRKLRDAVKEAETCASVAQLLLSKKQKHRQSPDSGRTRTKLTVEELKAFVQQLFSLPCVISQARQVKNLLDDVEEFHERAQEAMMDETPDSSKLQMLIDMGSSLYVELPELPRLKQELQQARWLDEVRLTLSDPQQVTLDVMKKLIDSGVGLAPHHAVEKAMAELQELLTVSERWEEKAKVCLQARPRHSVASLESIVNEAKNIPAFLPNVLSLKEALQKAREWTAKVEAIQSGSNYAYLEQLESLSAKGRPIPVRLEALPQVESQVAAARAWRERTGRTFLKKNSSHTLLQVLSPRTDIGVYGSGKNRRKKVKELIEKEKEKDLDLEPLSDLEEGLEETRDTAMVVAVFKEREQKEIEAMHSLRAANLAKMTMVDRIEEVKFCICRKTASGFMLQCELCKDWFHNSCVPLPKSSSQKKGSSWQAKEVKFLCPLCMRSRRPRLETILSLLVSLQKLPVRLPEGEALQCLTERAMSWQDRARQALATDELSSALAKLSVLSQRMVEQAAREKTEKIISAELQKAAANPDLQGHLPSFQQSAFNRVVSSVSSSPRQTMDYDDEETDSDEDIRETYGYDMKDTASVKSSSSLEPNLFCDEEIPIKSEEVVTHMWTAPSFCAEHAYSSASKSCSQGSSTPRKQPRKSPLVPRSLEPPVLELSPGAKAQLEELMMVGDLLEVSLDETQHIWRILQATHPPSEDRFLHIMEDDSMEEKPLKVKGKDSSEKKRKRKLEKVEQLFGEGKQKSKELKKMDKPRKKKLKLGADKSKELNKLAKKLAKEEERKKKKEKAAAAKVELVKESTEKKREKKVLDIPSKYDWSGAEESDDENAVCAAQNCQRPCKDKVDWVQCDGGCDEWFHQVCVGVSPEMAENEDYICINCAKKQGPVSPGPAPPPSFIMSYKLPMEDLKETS
Source text: as §1

JMJD2A (KDM4A) = biological target: T2, JMJD2A (KDM4A) (Homo sapiens, UniProt O75164); details: read-out: KDM4A pIC50 (converted)
T2 sequence (O75164 1-1064): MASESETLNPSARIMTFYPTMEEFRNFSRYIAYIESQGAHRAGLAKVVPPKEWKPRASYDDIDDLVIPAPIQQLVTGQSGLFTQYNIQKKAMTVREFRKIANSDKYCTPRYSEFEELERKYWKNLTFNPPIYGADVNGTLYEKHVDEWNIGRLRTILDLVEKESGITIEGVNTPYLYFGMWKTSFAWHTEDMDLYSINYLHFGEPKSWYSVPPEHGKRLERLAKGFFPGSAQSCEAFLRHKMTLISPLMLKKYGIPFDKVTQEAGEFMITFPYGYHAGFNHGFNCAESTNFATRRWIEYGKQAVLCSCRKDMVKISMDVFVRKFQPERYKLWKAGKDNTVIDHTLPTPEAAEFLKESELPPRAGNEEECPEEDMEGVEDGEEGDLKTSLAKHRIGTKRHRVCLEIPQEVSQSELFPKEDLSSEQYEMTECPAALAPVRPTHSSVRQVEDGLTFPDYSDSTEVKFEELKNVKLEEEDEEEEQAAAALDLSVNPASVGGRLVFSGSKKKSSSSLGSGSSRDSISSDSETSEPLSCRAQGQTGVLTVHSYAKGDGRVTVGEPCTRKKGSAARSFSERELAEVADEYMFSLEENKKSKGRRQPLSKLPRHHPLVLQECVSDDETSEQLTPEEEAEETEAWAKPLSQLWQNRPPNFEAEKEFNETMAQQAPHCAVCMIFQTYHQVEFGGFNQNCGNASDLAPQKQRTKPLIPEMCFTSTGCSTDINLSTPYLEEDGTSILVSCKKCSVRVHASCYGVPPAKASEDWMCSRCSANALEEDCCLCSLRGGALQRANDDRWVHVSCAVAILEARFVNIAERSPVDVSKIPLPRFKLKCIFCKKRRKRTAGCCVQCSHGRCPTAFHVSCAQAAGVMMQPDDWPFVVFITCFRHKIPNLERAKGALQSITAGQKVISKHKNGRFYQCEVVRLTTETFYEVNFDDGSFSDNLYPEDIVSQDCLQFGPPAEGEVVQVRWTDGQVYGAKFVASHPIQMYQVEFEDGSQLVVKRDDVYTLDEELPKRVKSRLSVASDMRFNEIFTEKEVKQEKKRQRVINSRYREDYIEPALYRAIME
Source text: as §1

Sequence of PHF8 (KDM7B) (Q9UPP1 whole entry): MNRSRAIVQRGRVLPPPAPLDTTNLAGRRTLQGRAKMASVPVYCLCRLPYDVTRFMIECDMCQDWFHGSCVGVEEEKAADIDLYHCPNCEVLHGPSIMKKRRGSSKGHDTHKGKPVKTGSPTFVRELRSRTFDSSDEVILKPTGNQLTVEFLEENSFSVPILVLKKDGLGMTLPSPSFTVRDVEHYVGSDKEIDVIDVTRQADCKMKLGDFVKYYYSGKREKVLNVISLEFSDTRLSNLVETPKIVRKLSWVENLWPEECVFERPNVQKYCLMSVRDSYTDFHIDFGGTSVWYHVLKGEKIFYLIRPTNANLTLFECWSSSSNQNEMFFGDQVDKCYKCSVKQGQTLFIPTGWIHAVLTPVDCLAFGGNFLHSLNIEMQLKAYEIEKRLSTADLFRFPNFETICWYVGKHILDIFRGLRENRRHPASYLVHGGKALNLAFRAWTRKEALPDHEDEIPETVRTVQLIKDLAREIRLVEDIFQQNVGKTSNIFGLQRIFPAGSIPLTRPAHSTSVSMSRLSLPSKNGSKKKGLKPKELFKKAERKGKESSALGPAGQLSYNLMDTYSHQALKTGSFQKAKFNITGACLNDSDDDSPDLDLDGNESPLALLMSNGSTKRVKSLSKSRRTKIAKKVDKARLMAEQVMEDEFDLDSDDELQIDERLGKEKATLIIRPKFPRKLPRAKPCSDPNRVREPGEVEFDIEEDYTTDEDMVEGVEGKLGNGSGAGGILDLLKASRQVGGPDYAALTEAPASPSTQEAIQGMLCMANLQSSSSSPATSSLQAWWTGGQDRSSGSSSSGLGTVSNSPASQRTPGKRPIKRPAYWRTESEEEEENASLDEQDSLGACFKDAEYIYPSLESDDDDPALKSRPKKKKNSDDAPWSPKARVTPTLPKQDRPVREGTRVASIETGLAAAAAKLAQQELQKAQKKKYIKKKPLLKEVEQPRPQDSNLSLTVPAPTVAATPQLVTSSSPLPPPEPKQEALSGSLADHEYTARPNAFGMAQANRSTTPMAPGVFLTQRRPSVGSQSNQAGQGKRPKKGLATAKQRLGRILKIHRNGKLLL

- IC50 (PHF8 (KDM7B)): 22.8 µM
- inhibition at 10 µM (JMJD2D (KDM4D)): 22.6%
- IC50 (JMJD2D (KDM4D); read-out: KDM4D pIC50 (converted)): > 100 µM
- IC50 (JMJD3A (KDM6B)): 19.8 µM
- IC50 (JARID1C (KDM5C)): 15.7 µM
- IC50 (JARID1B (KDM5B)): 13.1 µM
- inhibition at 50 µM (JARID1A (KDM5A)): -20.3%
- IC50 (JARID1A (KDM5A); read-out: KDM5A pIC50 (converted)): > 50.1 µM
- IC50 (JMJD2A (KDM4A)): > 20 µM
SMILES: CC(=O)N1c2ccccc2[C@@](C#N)(c2ccccc2)[C@@H]1c1cncc(CCCCCCCN2CCCC2)c1 [(S,S)-6]
